Common to all, as to type: functional
For test [1], the system named is Candida albicans. The test can be described thus: Antifungal activity against Candida albicans 21 assessed as fungal growth inhibition incubated for 48 hrs by broth microdilution method. (In broth dilution the organism is exposed to a series of concentrations in liquid medium.)
For test [2], the system named is Candida albicans. The test can be described thus: Antifungal activity against Candida albicans 22 assessed as fungal growth inhibition incubated for 48 hrs by broth microdilution method.
Test [3] relates to Candida albicans. Kind of test: Antifungal activity against Candida albicans SC5314 assessed as fungal growth inhibition incubated for 48 hrs by broth microdilution method.

Each structure is given as a SMILES string. ≈ marks a conversion by molar mass, not a printed value. Bounds are passed on as bounds.

For the compound `CSc1ccc(C(NC(=O)Cc2ccccc2)c2ccc3cccnc3c2O)cc1` (centres undefined), the minimum inhibitory concentration (MIC) – broadly, the least concentration at which growth counts as inhibited – was 2 µg/mL (≈ 4.82 µM) in test [1], 4 µg/mL (≈ 9.65 µM) in test [2] and 1 µg/mL (≈ 2.41 µM) in test [3].
Take `COc1ccc(C(NC(=O)Cc2ccccc2)c2ccc3cccnc3c2O)cc1` (centres undefined): the minimal inhibitory concentration (MIC) worked out at 0.5 µg/mL (≈ 1.25 µM) in test [1], 1 µg/mL (≈ 2.51 µM) in test [2] and 2 µg/mL (≈ 5.02 µM) in test [3].
The matching figures for `CC(C)C(=O)NC(c1ccc(F)c(Cl)c1)c1ccc2cccnc2c1O` (centres undefined): 0.25 µg/mL (≈ 0.671 µM), 0.5 µg/mL (≈ 1.34 µM) and 0.5 µg/mL (≈ 1.34 µM).
The matching figures for `CC(C)C(=O)NC(c1ccccc1Cl)c1ccc2cccnc2c1O` (centres undefined): 2 µg/mL (≈ 5.64 µM), 2 µg/mL (≈ 5.64 µM) and 2 µg/mL (≈ 5.64 µM).
With `COc1ccccc1C(NC(=O)C(C)C)c1cc(Cl)c2cccnc2c1O` (centres undefined), the MIC in test [1] was 64 µg/mL (≈ 166 µM); in test [2], greater than 64 µg/mL; in test [3] it was greater than 64 µg/mL.
Take `CC(C)C(=O)NC(c1cccc([N+](=O)[O-])c1)c1ccc2cccnc2c1O` (centres undefined): the MIC was 0.25 µg/mL (≈ 0.684 µM) in test [1], 0.5 µg/mL (≈ 1.37 µM) in test [2] and 0.25 µg/mL (≈ 0.684 µM) in test [3].
In the case of `CC(C)C(=O)NC(c1ccc(Cl)cc1)c1ccc2cccnc2c1O` (centres undefined), the MIC in test [1] came to 0.25 µg/mL (≈ 0.705 µM); in test [2], 0.5 µg/mL (≈ 1.41 µM); in test [3] it was 1 µg/mL (≈ 2.82 µM).
Regarding `OCCN1CCN(C(c2ccccc2)c2ccc3cccnc3c2O)CC1` (centres undefined), the MIC in test [1], in test [2] and in test [3] was 1 µg/mL (≈ 2.75 µM) in each case.
Turning to `O=C(Cc1ccccc1)NC(c1ccc(F)cc1)c1ccc2cccnc2c1O` (centres undefined), the figures for the MIC in test [1], in test [2] and in test [3] were 1 µg/mL (≈ 2.59 µM), 1 µg/mL (≈ 2.59 µM) and 0.5 µg/mL (≈ 1.29 µM), respectively.
Consider `CCN(CC)c1ccc(C(NC(=O)Cc2ccccc2)c2ccc3cccnc3c2O)cc1` (centres undefined), for which the minimal inhibitory concentration (MIC) came to 1 µg/mL (≈ 2.28 µM) in test [1], 2 µg/mL (≈ 4.55 µM) in test [2] and 0.5 µg/mL (≈ 1.14 µM) in test [3].
The matching figures for `O=C(Cc1ccccc1)NC(c1ccc(OC(F)(F)F)cc1)c1ccc2cccnc2c1O` (centres undefined): 1 µg/mL (≈ 2.21 µM), 2 µg/mL (≈ 4.42 µM) and 2 µg/mL (≈ 4.42 µM).
With `CC(=O)NC(c1ccc(Cl)cc1Cl)c1ccc2cccnc2c1O` (centres undefined), the MIC turned out to be 0.5 µg/mL (≈ 1.38 µM) in test [1], 0.5 µg/mL (≈ 1.38 µM) in test [2] and 0.125 µg/mL (≈ 0.346 µM) in test [3].
With `CC(=O)NC(c1ccccc1Cl)c1ccc2cccnc2c1O` (centres undefined), the minimum inhibitory concentration (MIC) in test [1], in test [2] and in test [3] was 8 µg/mL (≈ 24.5 µM) throughout.
For the compound `O=C(Cc1ccccc1)NC(c1ccc(Cl)cc1)c1ccc2cccnc2c1O` (centres undefined), the results for the minimum inhibitory concentration (MIC) in test [1], in test [2] and in test [3] were 0.25 µg/mL (≈ 0.621 µM), 1 µg/mL (≈ 2.48 µM) and 2 µg/mL (≈ 4.96 µM), respectively.
The matching figures for `CCCC(=O)NC(c1ccc(N(C)C)cc1)c1ccc2cccnc2c1O` (centres undefined): 0.25 µg/mL (≈ 0.688 µM), 0.5 µg/mL (≈ 1.38 µM) and 0.25 µg/mL (≈ 0.688 µM).
With `CS(=O)(=O)c1ccc(C(NC(=O)Cc2ccccc2)c2ccc3cccnc3c2O)cc1` (centres undefined), the results for the MIC in test [1], in test [2] and in test [3] were 1 µg/mL (≈ 2.24 µM), 2 µg/mL (≈ 4.48 µM) and 2 µg/mL (≈ 4.48 µM), respectively.
With `COc1ccc(C(NC(=O)C(C)C)c2ccc3cccnc3c2O)cc1` (centres undefined), the MIC in test [1] is 0.5 µg/mL (≈ 1.43 µM); in test [2] it was 1 µg/mL (≈ 2.85 µM); in test [3], 2 µg/mL (≈ 5.71 µM).
The matching figures for `O=C(Cc1ccccc1)NC(c1ccc(Br)cc1)c1ccc2cccnc2c1O` (centres undefined): 1 µg/mL (≈ 2.24 µM), 1 µg/mL (≈ 2.24 µM) and 2 µg/mL (≈ 4.47 µM).
Regarding `CCC(=O)NC(c1ccc(C)cc1)c1ccc2cccnc2c1O` (centres undefined), the minimum inhibitory concentration (MIC) in test [1], in test [2] and in test [3] was 0.5 µg/mL (≈ 1.56 µM) each time.
With `CC(C)C(=O)NC(c1ccc(F)cc1)c1ccc2cccnc2c1O` (centres undefined), the MIC in test [1], in test [2] and in test [3] was 1 µg/mL (≈ 2.96 µM) each time.
With `Cc1ccc(C(NC(=O)C(C)C)c2ccc3cccnc3c2O)cc1` (centres undefined), the values for the MIC in test [1], in test [2] and in test [3] were 1 µg/mL (≈ 2.99 µM), 1 µg/mL (≈ 2.99 µM) and 2 µg/mL (≈ 5.98 µM), respectively.
With `O=C(Cc1ccccc1)NC(c1ccc(C(F)(F)F)cc1)c1ccc2cccnc2c1O` (centres undefined), the MIC in test [1] was determined as 1 µg/mL (≈ 2.29 µM); in test [2], 2 µg/mL (≈ 4.58 µM); in test [3] it was 1 µg/mL (≈ 2.29 µM).
On to `CCC(=O)NC(c1ccccc1OC)c1ccc2cccnc2c1O` (centres undefined), for which the MIC turned out to be 8 µg/mL (≈ 23.8 µM) in test [1], 16 µg/mL (≈ 47.6 µM) in test [2] and 4 µg/mL (≈ 11.9 µM) in test [3].

Values taken from ChEMBL document CHEMBL5375952, “Discovery of Novel 8-Hydroxyquinoline Derivatives with Potent In Vitro and In Vivo Antifungal Activity” (J Med Chem, 2023).
